This assay deals with T1, S-nitrosoglutathione reductase (GSNOR) (Homo sapiens, UniProt P11766).
T1 construct: made in house; host or cells: E. coli
Put plainly: GSNOR assay (inhibition of GSNOR activity, NADH absorbance at 340 nm). The format is biochemical. The protocol:
Various compounds were tested in vitro for their ability to inhibit GSNOR activity.
GSNOR expression and purification is described in Biochemistry 2000, 39, 10720-10729.
Pre-cultures were grown from stabs of a GSNOR glycerol stock in 2XYT media containing 100 ug/ml ampicillin after an overnight incubation at 37° C. […] GSNOR expression was induced with 0.1% arabinose in an overnight incubation at 20° C.
E. coli cell paste was lysed by nitrogen cavitation and the clarified lysate purified by Ni affinity chromatography on an AKTA FPLC (Amersham Pharmacia). The column was eluted in 20 mM Tris pH 8.0/250 mM NaCl with a 0-500 mM imidazole gradient. Eluted GSNOR fractions containing the Smt-GSNOR fusion were digested overnight with Ulp-1 at 4° C. to remove the affinity tag then re-run on the Ni column under the same conditions. GSNOR was recovered in the flowthrough fraction and for crystallography is further purified by Q-Sepharose and Heparin flowthrough chromatography in 20 mM Tris pH 8.0, 1 mM DTT, 10 uM ZnSO4.
GSNOR assay: GSNO and enzyme/NADH Solutions are made up fresh each day. The solutions are filtered and allowed to warm to room temperature. GSNO solution: 100 mM NaPO4 (pH 7.4), 0.480 mM GSNO. 396 μL of GSNO Solution is added to a cuvette followed by 8 μL of test compound in DMSO (or DMSO only for full reaction control) and mixed with the pipette tip. Compounds to be tested are made up at a stock concentration of 10 mM in 100% DMSO. 2 fold serial dilutions are done in 100% DMSO. 8 μL of each dilution are added to an assay so that the final concentration of DMSO in the assay is 1%. The concentrations of compounds tested range from 100 to 0.003 μM. Enzyme/NADH solution: 100 mM NaPO4 (pH 7.4), 0.600 mM NADH, 1.0 μg/mL GSNO Reductase. 396 μL of the Enzyme/NADH solution is added to the cuvette to start the reaction. The cuvette is placed in the Cary 3E UV/Visible Spectrophotometer and the change in 340 nm absorbance/min at 25° C. is recorded for 3 minutes. The assays are done in triplicate for each compound concentration. IC50's for each compound are calculated using the standard curve analysis in the Enzyme Kinetics Module of SigmaPlot.
Final assay conditions: 100 mM NaPO4, pH 7.4, 0.240 mM GSNO, 0.300 mM NADH, 0.5 μg/mL GSNO Reductase, and 1% DMSO. Final volume: 800 μL/cuvette.

Where [1] appears, read: GSNOR inhibitor activity, Tables 1-6, read-out: IC50 range.
The mark [2] stands for this setting: Table 8, GSNOR inhibition, IC50 range class a/b/c, read-out: IC50.
Where [3] appears, read: Table 7, GSNOR inhibition, IC50 range class a/b/c, read-out: IC50.

Where two headings read alike, the source gives them in different places.

Drawing on patent publication US20140094465A1, “Compounds as S-Nitrosoglutathione Reductase Inhibitors” (N30 PHARMACEUTICALS, INC., priority 2011, published 2014), this text covers IC50 for 49 compounds.

T1 sequence (P11766 whole entry): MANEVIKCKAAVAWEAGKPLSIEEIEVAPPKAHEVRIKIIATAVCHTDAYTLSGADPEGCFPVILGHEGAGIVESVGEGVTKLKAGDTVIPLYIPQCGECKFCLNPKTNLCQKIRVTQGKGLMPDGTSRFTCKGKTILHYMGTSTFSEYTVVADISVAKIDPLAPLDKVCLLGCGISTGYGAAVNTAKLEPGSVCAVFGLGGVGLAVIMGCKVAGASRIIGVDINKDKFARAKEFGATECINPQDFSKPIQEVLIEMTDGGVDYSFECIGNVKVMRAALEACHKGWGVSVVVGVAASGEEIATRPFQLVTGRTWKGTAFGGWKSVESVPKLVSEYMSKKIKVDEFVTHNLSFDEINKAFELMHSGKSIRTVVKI

Regarding `O=C(O)c1ccc(COc2cc(F)c(O)cc2F)c(F)c1` [VI-22, 4-((2,5-difluoro-4-hydroxyphenoxy)methyl)-3-fluorobenzoic acid], the IC50 (in general, the concentration needed to halve the response being measured) under setting [1] lay within 0.1 to 1 µM. Still for that read-out and setting: then `O=C(O)c1cnc(-c2ccc3cc(O)ccc3c2)cn1` [III-8], with 0.1 to 1 µM; and `O=C(O)c1ccc(-c2ccc3c(Br)c(O)ccc3n2)cc1` [Compound I-45, 4-(5-bromo-6-hydroxyquinolin-2-yl)benzoic acid], with 0.1 to 1 µM.

As for `O=c1nc(-c2ccc(-c3ccc4cc(O)ccc4n3)c(F)c2)[nH]o1` [Compound I-21], under setting [1], the IC50 was less than 0.1 µM. Still for that read-out and setting: then `O=C(O)c1ccc(-c2ccc3cc(O)ccc3c2)cc1O` [III-35, 2-hydroxy-4-(6-hydroxynaphthalen-2-yl)benzoic acid], with less than 0.1 µM; and `N#Cc1cc(C(=O)O)ccc1-c1ccc2cc(O)ccc2n1` [Compound I-49, 3-cyano-4-(6-hydroxyquinolin-2-yl)benzoic acid], with less than 0.1 µM.

Turning to `O=C(O)c1ccc(-c2ncc3cc(O)ccc3n2)c(F)c1` [II-6], under setting [1], the IC50 is less than 0.1 µM.

On to `O=C(O)[C@H]1CC[C@H](c2nc3ccc(O)cc3nc2C(F)(F)F)CC1` [II-27, (trans)-4-(6-hydroxy-3-(trifluoromethyl)quinoxalin-2-yl)cyclohexanecarboxylic acid], for which the IC50 under setting [1] was less than 0.1 µM. The same measure, in the same setting: then `Nc1cc(-c2ccc(C(=O)O)cc2)nc2ccc(O)cc12` [Compound I-51, 4-(4-amino-6-hydroxyquinolin-2-yl)benzoic acid], with 1 to 10 µM; and `COc1cc(C(=O)O)ccc1-c1c(C(F)(F)F)oc2cc(O)ccc2c1=O` [IV-20], with less than 0.1 µM; and `O=c1[nH]c(-c2ccc(-c3c(C(F)(F)F)oc4cc(O)ccc4c3=O)c(F)c2)no1` [IV-41], with less than 0.1 µM. `O=C(O)c1cnc(-c2ccc3cc(O)ccc3c2)nc1` [III-9]: the IC50 under setting [1] was in the range of 0.1 to 1 µM. Still for that read-out and setting: then `COCc1oc2cc(O)ccc2c(=O)c1-c1ccc(C(=O)O)cc1` [IV-2], with 0.1 to 1 µM. On the same count and under the same terms, under `O=C(O)c1ccc(-c2cc3ccc(O)cc3cc2Cl)cc1` [III-22, 4-(3-chloro-6-hydroxynaphthalen-2-yl)benzoic acid] stands less than 0.1 µM. Consider `O=c1c2ccc(O)cc2ccn1[C@H]1CC[C@H](C(=O)O)CC1` [VIII-14, (trans)-4-(6-hydroxy-1-oxoisoquinolin-2(1H)-yl)cyclohexanecarboxylic acid], for which, under setting [2], the IC50 lay in the range of 1 to 10 µM. For `COc1cc(C(=O)O)ccc1-c1ccc2cc(O)ccc2n1` [Compound I-14], under setting [1], the IC50 was less than 0.1 µM. On to `O=C(O)c1ccc(-c2ccc3c(F)c(O)ccc3c2)c(Cl)c1` [III-30], for which, under setting [1], the half-inhibitory concentration (IC50) is less than 0.1 µM. Same read-out and setting: then `Oc1ccc2nc(-c3ccc(-c4nn[nH]n4)s3)ccc2c1` [Compound I-38], with 0.1 to 1 µM; and `O=C(O)c1ccc(Oc2c(-c3ccc(Cl)cc3)oc3cc(O)ccc3c2=O)cc1` [Compound V-7, 4-(2-(4-chlorophenyl)-7-hydroxy-4-oxo-4H-chromen-3-yloxy)benzoic acid], with 1 to 10 µM. On to `O=C(O)c1cccc(-c2csc(-c3ccc(O)cc3)n2)c1` [VII-18, 3-(2-(4-hydroxyphenyl)thiazol-4-yl)benzoic acid], for which, under setting [3], the half-inhibitory concentration (IC50) fell in the range of 1 to 10 µM. Same read-out and setting: then `O=C(O)c1ccc(-c2ccc(-c3ccc(O)cc3)cc2)s1` [VII-21, 5-(4′-hydroxy-[1,1′-biphenyl]-4-yl)thiophene-2-carboxylic acid], with 0.1 to 1 µM.

As for `O=C(O)c1ccc(COc2ccc(O)c(F)c2)c(F)c1` [VI-23, 3-fluoro-4-((3-fluoro-4-hydroxyphenoxy)methyl)benzoic acid], the IC50 under setting [1] is 0.1 to 1 µM.

As to `COCCn1c(-c2ccc(O)cc2)ccc1-c1ccc(C(=O)O)s1` [VII-25, 5-(5-(4-hydroxyphenyl)-1-(2-methoxyethyl)-1H-pyrrol-2-yl)thiophene-2-carboxylic acid], under setting [3], the IC50 was less than 0.1 µM.

Regarding `Cc1sc2cc(O)ccc2c(=O)c1-c1ccc(-c2nnn[nH]2)cc1` [IV-34], the IC50 under setting [1] is less than 0.1 µM. The same measure, in the same setting: then `O=C(O)C1CC=C(c2ccc3cc(O)ccc3n2)CC1` (stereo not shown) [Compound I-16], with 0.1 to 1 µM; and `COc1c(-c2ccc(C(=O)O)cc2)ccc2cc(O)ccc12` [III-24, 4-(6-hydroxy-1-methoxynaphthalen-2-yl)benzoic acid], with less than 0.1 µM. As for `O=C(O)c1ccc(-c2cc(=O)c3cc(O)ccc3[nH]2)c(F)c1` [VIII-8, 3-fluoro-4-(6-hydroxy-4-oxo-1,4-dihydroquinolin-2-yl)benzoic acid], the IC50 under setting [2] was 1 to 10 µM. As to `O=C(O)c1ccc(-c2cc(F)c3c(F)c(O)ccc3c2)c(F)c1` [III-40, 4-(4,5-difluoro-6-hydroxynaphthalen-2-yl)-3-fluorobenzoic acid], under setting [1], the IC50 is less than 0.1 µM. Compound `O=C(O)c1ccc(-n2c(C(F)(F)F)nc3cc(O)ccc3c2=O)cc1` [VIII-2, 4-(7-hydroxy-4-oxo-2-(trifluoromethyl)quinazolin-3(4H)-yl)benzoic acid] had an IC50 of 0.1 to 1 µM. As for `O=C(O)c1ccc(-c2cnc(-c3ccc(O)cc3)nc2)cc1` [VII-15, 4-(2-(4-hydroxyphenyl)pyrimidin-5-yl)benzoic acid], the IC50 under setting [3] is 1 to 10 µM. As to `O=C(O)c1ccc(NC(=O)c2ccc(O)cc2F)cc1` [VI-15, 4-(2-fluoro-4-hydroxybenzamido)benzoic acid], the IC50 under setting [1] was in the range of 0.1 to 1 µM. In the case of `O=C(O)c1ccc(-c2c(C(F)(F)F)oc3cc(O)ccc3c2=O)s1` [IV-24], under setting [1], the IC50 is less than 0.1 µM. `Cc1cc(C(=O)O)ccc1-c1c(C(F)(F)F)oc2cc(O)ccc2c1=O` [IV-43]: the IC50 under setting [1] is less than 0.1 µM.

As for `O=C(O)c1ccc(/C=C/c2ccc(O)cc2O)cc1` [VI-13, (E)-4-(2,4-dihydroxystyryl)benzoic acid], under setting [1], the IC50 is 1 to 10 µM. On the same count and under the same terms, then `O=C(O)c1ccc(CSc2ccc(O)cc2)c(F)c1` [VI-24, 3-fluoro-4-(((4-hydroxyphenyl)thio)methyl)benzoic acid], with 0.1 to 1 µM; and `O=C(O)c1ccc(-c2cc(F)c3cc(O)ccc3n2)cc1` [Compound I-26, 4-(4-fluoro-6-hydroxyquinolin-2-yl)benzoic acid], with less than 0.1 µM; and `O=C(O)c1ccc(-c2ccc3cc(O)ccc3c2)nn1` [III-11], with 1 to 10 µM. Still for that read-out and setting: then `O=C(O)c1ccc(CC(=O)c2ccc(O)cc2O)c(F)c1` [VI-18, 4-(2-(2,4-dihydroxyphenyl)-2-oxoethyl)-3-fluorobenzoic acid], with 0.1 to 1 µM. On the same count and under the same terms, under `Oc1ccc2nc(C(F)(F)F)c(-c3ccc(-c4nnn[nH]4)cc3)nc2c1` [II-16] stands 0.1 to 1 µM; under `O=C(C[C@H]1CC[C@H](C(=O)O)CC1)c1ccc(O)cc1O` [VI-1, (trans)-4-(2-(2,4-dihydroxyphenyl)-2-oxoethyl)cyclohexanecarboxylic acid], 0.1 to 1 µM.

Take `O=C(O)c1ccc(-c2ccc3c(F)c(O)ccc3n2)cc1` [Compound I-53, 4-(5-fluoro-6-hydroxyquinolin-2-yl)benzoic acid]: under setting [1], the IC50 was less than 0.1 µM. With `COc1cc(-c2ccc3cc(O)ccc3c2)ccc1C(=O)O` [III-34, 4-(6-hydroxynaphthalen-2-yl)-2-methoxybenzoic acid], under setting [1], the IC50 was 0.1 to 1 µM.

As to `O=C(O)c1ccc(NC(=O)c2ccc(O)cc2C(F)(F)F)cc1` [VI-14, 4-(4-hydroxy-2-(trifluoromethyl)benzamido)benzoic acid], the concentration for half-maximal inhibition (IC50) under setting [1] lay within 0.1 to 1 µM. Still for that read-out and setting: under `O=C(O)c1ccc(-c2nc3ccc(O)cc3nc2C(F)(F)F)c(Cl)c1` [II-8] stands less than 0.1 µM. `O=C(O)c1ccc(-n2ccc3cc(O)ccc3c2=O)cc1` [VIII-3, 4-(6-hydroxy-1-oxoisoquinolin-2(1H)-yl)benzoic acid]: the IC50 under setting [2] is less than 0.1 µM. As to `O=C(O)c1ccc(-c2ccc3cc(O)cc(F)c3n2)cc1` [Compound I-54, 4-(8-fluoro-6-hydroxyquinolin-2-yl)benzoic acid], under setting [1], the IC50 was less than 0.1 µM.

With `O=C(O)[C@H]1CC[C@H](c2nc3ccc(O)cc3cc2C(F)(F)F)CC1` [Compound I-43], the IC50 under setting [1] was less than 0.1 µM. For the compound `O=C(O)c1ccc(-c2cnc(-c3ccc(O)c(F)c3)s2)s1` [VII-10, 5-(2-(3-fluoro-4-hydroxyphenyl)thiazol-5-yl)thiophene-2-carboxylic acid], the IC50 under setting [3] was less than 0.1 µM. With `O=C(O)C1CCN(c2ccc3cc(O)ccc3n2)CC1` [Compound I-5], under setting [1], the IC50 lay within 1 to 10 µM.
